target: SARS-CoV 3CL^pro (Severe acute respiratory syndrome coronavirus, UniProt P0C6X7); format: biochemical

Structure (SMILES)	Inhibitory activity against SARS 3CLpro (in words)
CC1=NN(c2ccccc2)C(=O)/C1=C\c1ccc(-c2cc(Cl)ccc2C(=O)O)o1 [Compound 3e, 4-Chloro-2-(5-((3-methyl-5-oxo-1-phenyl-1,5-dihydro-4H-pyrazol-4-ylidene)methyl)furan-2-yl)benzoic acid]	unable to inhibit
O=C1/C(=C\c2ccc(-c3ccccc3)o2)C(c2ccccc2)=NN1c1ccccc1 [Compound 3j, 2,5-Diphenyl-4-((5-phenylfuran-2-yl)methylene)-2,4-dihydro-3H-pyrazol-3-one]	inactive
CC1=NN(c2cccc(C(=O)O)c2)C(=O)/C1=C\c1ccc(-c2ccccc2)o1 [Compound 3l, 3-(3-Methyl-5-oxo-4-((5-phenylfuran-2-yl)methylene)-4,5-dihydro-1H-pyrazol-1-yl)benzoic acid]	unable to inhibit

— publication PMC7079562 (Bioorganic & Medicinal Chemistry, 2016)
